Experiments:
[1] = system: MCF7; assay: Antiproliferative activity against human MCF7 cells measured after 72 hrs by MTT assay; format: functional, cell-based; conditions: MCF7, 72 h
[2] = target: Mast/stem cell growth factor receptor Kit (Homo sapiens, UniProt P10721); assay: Inhibition of human N-terminal GST-tagged c-Kit cytoplasmic domain (544 to end residues) expressed in baculovirus infected Sf21 insect cells using peptide substrate measured after 1 hr by mobility shift assay
[3] = target: Platelet-derived growth factor receptor beta (Homo sapiens, UniProt P09619); assay: Inhibition of human His-tagged PDGFRB cytoplasmic domain expressed in baculovirus expression system using peptide substrate measured after 1 hr by mobility shift assay
Sequence of Platelet-derived growth factor receptor beta (P09619 whole entry, the tested form may be a part): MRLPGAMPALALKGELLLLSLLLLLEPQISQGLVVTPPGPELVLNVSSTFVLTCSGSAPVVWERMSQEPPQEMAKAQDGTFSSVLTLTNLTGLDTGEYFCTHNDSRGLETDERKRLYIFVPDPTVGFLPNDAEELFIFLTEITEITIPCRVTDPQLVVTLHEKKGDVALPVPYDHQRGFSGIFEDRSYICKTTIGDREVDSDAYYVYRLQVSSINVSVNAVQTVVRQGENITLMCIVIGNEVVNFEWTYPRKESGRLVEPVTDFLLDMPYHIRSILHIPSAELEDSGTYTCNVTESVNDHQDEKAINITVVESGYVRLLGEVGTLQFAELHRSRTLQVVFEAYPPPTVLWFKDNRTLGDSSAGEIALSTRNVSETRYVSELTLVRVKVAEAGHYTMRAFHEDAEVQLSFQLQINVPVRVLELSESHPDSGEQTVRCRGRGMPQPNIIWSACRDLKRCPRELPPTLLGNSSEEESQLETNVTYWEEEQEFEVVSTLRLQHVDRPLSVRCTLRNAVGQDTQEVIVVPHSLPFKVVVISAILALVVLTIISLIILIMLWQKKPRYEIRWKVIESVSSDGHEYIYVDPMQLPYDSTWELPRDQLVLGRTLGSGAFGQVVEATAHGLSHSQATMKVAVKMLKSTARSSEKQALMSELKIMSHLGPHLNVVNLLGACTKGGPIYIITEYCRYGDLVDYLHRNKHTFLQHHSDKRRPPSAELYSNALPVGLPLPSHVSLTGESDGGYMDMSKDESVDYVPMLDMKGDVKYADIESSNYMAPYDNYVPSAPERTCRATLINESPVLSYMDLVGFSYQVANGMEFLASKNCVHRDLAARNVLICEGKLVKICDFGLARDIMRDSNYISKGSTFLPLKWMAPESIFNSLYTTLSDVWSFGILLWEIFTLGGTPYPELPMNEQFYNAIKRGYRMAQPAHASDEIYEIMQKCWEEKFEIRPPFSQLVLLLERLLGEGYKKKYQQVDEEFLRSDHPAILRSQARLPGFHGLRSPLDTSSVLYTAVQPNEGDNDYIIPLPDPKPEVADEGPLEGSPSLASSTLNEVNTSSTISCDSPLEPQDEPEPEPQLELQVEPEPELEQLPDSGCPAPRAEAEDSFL

[4] = target: Hepatocyte growth factor receptor (Homo sapiens, UniProt P08581); assay: Inhibition of human N-terminal GST-fused c-MET cytoplasmic domain (956 to 1390 residues) expressed in baculovirus expression system using Srctide as substrate measured after 1 hr by mobility shift assay
Sequence of Hepatocyte growth factor receptor (P08581 whole entry, the tested form may be a part): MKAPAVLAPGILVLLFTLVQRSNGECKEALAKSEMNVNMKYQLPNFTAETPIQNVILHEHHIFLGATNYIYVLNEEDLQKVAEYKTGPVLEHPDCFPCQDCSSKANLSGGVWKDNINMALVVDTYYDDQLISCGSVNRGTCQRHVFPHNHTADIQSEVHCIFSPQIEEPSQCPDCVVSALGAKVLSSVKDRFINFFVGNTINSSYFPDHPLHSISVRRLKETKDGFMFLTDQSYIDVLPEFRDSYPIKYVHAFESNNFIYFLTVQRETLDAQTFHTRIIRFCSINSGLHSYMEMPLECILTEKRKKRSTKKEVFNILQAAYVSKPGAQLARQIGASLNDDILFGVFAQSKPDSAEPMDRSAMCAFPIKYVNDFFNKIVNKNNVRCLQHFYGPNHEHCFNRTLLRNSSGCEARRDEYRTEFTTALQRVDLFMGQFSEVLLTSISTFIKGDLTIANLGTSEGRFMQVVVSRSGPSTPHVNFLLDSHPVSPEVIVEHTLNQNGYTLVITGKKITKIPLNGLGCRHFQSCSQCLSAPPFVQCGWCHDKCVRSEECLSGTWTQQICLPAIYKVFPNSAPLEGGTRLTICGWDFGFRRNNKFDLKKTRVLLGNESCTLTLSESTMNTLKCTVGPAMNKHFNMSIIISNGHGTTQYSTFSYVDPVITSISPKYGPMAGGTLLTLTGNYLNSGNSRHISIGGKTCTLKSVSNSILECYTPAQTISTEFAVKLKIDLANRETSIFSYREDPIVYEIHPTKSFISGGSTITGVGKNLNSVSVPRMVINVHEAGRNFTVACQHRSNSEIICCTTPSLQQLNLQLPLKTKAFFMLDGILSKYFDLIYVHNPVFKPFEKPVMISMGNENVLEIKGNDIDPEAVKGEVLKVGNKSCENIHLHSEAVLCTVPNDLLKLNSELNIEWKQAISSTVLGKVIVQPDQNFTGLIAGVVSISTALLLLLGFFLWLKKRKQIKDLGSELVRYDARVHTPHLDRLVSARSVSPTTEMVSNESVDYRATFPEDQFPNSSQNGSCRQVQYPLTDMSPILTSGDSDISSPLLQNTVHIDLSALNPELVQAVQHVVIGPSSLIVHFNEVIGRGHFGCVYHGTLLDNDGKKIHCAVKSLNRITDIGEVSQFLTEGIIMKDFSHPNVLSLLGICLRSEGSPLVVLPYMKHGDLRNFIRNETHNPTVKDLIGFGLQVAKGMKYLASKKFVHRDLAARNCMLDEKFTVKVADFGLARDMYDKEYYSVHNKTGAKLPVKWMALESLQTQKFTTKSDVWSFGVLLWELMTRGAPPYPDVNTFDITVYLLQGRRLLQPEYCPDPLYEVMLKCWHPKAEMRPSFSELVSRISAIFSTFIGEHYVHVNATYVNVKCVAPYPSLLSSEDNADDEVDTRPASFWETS

[5] = target: T1, Receptor-type tyrosine-protein kinase FLT3 (Homo sapiens, UniProt P36888); assay: Inhibition of human N-terminal GST-fused FLT3 cytoplasmic domain (564 to 993 residues) expressed in baculovirus expression system using Srctide as substrate measured after 1 hr by mobility shift assay
T1 sequence (P36888 whole entry): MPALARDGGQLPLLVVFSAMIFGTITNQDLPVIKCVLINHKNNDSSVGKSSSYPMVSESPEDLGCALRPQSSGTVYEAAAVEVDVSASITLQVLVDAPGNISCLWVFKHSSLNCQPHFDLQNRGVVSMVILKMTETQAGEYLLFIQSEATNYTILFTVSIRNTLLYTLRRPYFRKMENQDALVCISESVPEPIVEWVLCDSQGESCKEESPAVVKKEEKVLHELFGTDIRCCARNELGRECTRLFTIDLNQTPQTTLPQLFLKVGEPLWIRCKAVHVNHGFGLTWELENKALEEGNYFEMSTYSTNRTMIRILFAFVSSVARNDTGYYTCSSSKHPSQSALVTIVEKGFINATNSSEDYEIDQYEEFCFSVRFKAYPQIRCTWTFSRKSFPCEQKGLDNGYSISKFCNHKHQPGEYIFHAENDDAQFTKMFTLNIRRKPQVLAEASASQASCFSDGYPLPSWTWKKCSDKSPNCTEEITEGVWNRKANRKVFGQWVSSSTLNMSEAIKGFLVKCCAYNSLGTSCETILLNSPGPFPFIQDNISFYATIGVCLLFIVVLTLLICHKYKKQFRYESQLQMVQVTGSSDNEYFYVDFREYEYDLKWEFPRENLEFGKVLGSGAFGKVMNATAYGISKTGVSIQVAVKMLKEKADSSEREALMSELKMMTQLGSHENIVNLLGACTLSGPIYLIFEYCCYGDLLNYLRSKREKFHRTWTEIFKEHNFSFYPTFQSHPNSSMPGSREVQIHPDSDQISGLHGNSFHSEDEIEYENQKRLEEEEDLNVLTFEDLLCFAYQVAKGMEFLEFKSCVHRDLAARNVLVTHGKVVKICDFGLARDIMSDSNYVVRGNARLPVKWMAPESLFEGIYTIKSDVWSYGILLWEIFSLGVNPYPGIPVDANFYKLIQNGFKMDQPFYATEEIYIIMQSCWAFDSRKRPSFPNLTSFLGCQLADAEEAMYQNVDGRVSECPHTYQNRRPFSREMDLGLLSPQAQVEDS

[6] = target: T2, Tyrosine-protein kinase Mer (Homo sapiens, UniProt Q12866); assay: Inhibition of MER (unknown origin)
T2 sequence (Q12866 whole entry): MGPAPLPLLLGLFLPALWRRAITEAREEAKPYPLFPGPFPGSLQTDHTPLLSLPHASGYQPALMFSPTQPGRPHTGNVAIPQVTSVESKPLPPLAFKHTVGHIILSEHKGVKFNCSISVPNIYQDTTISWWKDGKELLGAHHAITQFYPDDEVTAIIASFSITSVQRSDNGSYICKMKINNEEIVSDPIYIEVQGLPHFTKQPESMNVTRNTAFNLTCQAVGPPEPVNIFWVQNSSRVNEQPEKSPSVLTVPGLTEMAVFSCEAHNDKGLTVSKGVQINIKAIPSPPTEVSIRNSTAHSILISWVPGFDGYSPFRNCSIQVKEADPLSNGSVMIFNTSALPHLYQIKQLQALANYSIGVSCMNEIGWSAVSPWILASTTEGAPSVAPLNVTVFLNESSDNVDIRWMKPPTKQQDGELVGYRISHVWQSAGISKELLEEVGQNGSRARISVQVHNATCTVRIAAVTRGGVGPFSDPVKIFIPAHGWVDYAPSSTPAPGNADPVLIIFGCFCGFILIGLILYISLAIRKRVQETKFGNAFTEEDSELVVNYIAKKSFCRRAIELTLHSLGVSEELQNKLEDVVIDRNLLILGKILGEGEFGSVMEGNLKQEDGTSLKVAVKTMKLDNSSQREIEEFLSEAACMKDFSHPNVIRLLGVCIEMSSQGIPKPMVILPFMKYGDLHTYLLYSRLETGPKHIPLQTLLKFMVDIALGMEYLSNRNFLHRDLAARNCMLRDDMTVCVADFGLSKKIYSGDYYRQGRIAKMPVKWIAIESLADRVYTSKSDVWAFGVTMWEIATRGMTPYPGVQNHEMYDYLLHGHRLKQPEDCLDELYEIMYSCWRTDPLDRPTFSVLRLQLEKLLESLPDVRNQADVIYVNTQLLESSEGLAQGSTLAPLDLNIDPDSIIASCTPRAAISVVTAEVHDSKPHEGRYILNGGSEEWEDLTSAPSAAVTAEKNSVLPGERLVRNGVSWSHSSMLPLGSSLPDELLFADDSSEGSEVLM

[7] = target: Vascular endothelial growth factor receptor 2 (Homo sapiens, UniProt P35968); assay: Inhibition of human N-terminal GST-fused KDR cytoplasmic domain (790 to 1356 residues) expressed in baculovirus expression system using CSKtide as substrate measured after 1 hr by mobility shift assay
Sequence of Vascular endothelial growth factor receptor 2 (P35968 whole entry, the tested form may be a part): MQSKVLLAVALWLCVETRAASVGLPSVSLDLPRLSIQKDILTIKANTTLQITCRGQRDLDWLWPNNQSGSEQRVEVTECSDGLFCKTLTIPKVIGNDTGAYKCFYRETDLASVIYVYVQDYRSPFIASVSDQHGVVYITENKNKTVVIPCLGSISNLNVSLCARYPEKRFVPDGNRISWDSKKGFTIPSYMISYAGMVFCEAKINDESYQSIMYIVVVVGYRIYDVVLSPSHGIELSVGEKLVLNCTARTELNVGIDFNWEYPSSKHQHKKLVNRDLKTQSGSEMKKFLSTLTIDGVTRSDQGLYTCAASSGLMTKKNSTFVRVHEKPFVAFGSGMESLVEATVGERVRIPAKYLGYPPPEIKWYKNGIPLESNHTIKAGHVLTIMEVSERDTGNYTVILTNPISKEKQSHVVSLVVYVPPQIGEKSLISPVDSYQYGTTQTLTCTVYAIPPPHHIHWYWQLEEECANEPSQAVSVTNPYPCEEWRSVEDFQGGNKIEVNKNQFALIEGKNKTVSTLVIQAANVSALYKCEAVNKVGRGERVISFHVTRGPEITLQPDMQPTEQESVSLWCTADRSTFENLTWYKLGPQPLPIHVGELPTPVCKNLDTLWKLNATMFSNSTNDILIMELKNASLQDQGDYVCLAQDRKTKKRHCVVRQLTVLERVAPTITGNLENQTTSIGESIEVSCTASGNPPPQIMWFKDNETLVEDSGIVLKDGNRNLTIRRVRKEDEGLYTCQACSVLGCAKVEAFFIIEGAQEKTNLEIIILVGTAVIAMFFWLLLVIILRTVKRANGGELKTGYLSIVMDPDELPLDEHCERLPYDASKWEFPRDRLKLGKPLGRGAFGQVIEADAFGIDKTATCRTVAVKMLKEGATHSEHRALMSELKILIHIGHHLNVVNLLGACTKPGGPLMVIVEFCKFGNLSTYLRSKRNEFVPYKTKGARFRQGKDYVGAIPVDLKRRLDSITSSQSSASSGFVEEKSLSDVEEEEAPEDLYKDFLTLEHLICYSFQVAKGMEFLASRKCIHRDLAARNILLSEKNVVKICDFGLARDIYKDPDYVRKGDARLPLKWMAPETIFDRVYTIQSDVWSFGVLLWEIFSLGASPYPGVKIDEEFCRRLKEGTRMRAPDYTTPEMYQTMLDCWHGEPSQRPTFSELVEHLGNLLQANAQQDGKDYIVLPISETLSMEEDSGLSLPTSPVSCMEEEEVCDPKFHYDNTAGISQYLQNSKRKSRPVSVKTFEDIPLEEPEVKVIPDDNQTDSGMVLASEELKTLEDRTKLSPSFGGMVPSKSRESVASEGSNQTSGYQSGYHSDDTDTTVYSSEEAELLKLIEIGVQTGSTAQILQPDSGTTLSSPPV

[8] = system: A549; assay: cells; conditions: Homo sapiens, A549, 72 h
Description: Antiproliferative activity against human A549 cells measured after 72 hrs by MTT assay

[9] = system: PC-3; assay: cells; conditions: Homo sapiens, PC-3, 72 h
Description: Antiproliferative activity against human PC-3 cells measured after 72 hrs by MTT assay

[10] = system: HT-29; assay: Antiproliferative activity against human HT-29 cells measured after 72 hrs by MTT assay; conditions: HT-29, 72 h

Sequence of Mast/stem cell growth factor receptor Kit (P10721 whole entry, the tested form may be a part): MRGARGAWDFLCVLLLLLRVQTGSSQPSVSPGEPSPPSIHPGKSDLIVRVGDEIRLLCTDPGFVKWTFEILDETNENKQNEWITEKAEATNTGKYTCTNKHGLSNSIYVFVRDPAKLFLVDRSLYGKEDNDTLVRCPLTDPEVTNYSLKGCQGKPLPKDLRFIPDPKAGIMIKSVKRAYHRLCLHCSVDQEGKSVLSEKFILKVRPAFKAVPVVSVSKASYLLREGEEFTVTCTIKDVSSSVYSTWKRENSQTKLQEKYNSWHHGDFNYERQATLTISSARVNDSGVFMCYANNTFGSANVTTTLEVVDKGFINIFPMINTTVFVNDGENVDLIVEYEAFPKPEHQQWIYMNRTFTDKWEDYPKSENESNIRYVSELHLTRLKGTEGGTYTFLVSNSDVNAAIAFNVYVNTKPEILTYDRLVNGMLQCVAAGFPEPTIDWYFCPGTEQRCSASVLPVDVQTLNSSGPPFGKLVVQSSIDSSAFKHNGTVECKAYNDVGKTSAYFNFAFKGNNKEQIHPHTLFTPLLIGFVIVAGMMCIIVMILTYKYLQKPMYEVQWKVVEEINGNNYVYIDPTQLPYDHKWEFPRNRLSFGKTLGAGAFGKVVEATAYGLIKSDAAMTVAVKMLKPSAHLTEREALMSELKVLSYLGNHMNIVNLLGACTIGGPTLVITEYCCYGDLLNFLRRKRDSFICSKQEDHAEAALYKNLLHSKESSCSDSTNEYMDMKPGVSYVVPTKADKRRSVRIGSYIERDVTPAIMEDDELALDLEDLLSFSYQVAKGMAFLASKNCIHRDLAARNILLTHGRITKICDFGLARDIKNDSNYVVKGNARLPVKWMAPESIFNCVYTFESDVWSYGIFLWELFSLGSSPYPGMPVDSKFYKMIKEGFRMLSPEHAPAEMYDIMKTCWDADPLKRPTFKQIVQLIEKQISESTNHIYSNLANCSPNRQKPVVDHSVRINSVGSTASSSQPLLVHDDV

## COc1cc2c(Oc3ccc(NC(=O)C(C)c4nnc(-c5ccc(F)cc5)o4)cc3F)ccnc2cc1OCCCN1CCC(C)CC1 (stereo not given)
[1]
  IC50: 1000 nM
[2]
  IC50: 47 nM
[3]
  IC50: > 200 nM
[4]
  IC50: 62 nM
[5]
  IC50: > 200 nM
[6]
  IC50: > 200 nM
[7]
  IC50: 40 nM
[8]
  IC50: 32 nM
[9]
  IC50: 530 nM
[10]
  IC50: 1460 nM

Source: ChEMBL document CHEMBL4680122, “Design, synthesis and biological evaluation of new Axl kinase inhibitors containing 1,3,4-oxadiazole acetamide moiety as novel linker” (Eur J Med Chem, 2020)
